Key:
Type in all cases: in vivo
[1] = test system: ragweed (common ragweed, Ambrosia artemisiifolia); experiment: Test A1 preemergence, ragweed
How it was run: (§1)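 Test compounds were formulated in a non-phytotoxic solvent mixture containing a surfactant. For preemergence, seeds sown in a loam soil–sand blend received a directed soil spray. For postemergence, potted plants in the same soil, 2 to 10 cm tall at the one- to two-leaf stage, were sprayed.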

[2] = test system: goosegrass (Eleusine indica); experiment: Test A1 postemergence, goosegrass; settings: for Plant response rating, Goosegrass: Postemergence
How it was run: (§2)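 Plants grown in pots of loam/sand mix; preemergence = soil-directed spray on seeded pots, postemergence = spray at 1–2 leaves, height 2–10 cm; test chemicals formulated in non-phytotoxic solvent with surfactant.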

[3] = test system: Pigweed, Palmer (palmer amaranth, palmer pigweed, Amaranthus palmeri); experiment: Test A1 postemergence, Pigweed, Palmer; settings: for Plant response rating, Pigweed, Palmer: Postemergence
How it was run: as §1

[4] = test system: ragweed (common ragweed, Ambrosia artemisiifolia); experiment: Test A1 postemergence, ragweed; settings: for Plant response rating, Ragweed: Postemergence
How it was run: as §1

[5] = test system: galium (catchweed bedstraw, Galium aparine); experiment: Test A1 postemergence, galium; settings: for Plant response rating, Galium: Postemergence
How it was run: as §2

[6] = 31 g ai/ha, 0 to 100 scale (0 no effect, 100 complete control)
[7] = 125 g ai/ha, 0 to 100 scale, 0 no effect, 100 complete control
[8] = 31 g ai/ha, 0 to 100 scale (0 no effect, 100 complete control), 10 days
[9] = 31 g ai/ha, postemergence, 0 to 100 scale (0 no effect, 100 complete control)

Compound	Plant response rating, Ragweed [1, 6]	Plant response rating, Ragweed [1, 7]	Plant response rating, Goosegrass [2, 8]	Plant response rating, Goosegrass ([2]; 125 g ai/ha, 0 to 100 scale)	Plant response rating, Pigweed, Palmer [3, 8]	Plant response rating, Pigweed, Palmer ([3]; 125 g ai/ha, 0 to 100 scale)	Plant response rating, Ragweed [4, 8]	Plant response rating, Ragweed ([4]; 125 g ai/ha, 0 to 100 scale)	Plant response rating, Galium [5, 8]	Plant response rating, Galium ([5]; 125 g ai/ha, 0 to 100 scale)	Goosegrass plant response rating [2, 9]	Pigweed, Palmer plant response rating [3, 9]	Ragweed plant response rating [4, 9]	Galium plant response rating [5, 9]
CCCCOC1CC(c2cc(NS(=O)(=O)C(F)(F)F)c(C)cc2C)=NO1 (stereo not shown) [Compound 323]	0	30	0	50	20	60	0	50	50	80	–	–	–	–
CCOC(=O)N(c1cc(C(=O)N2CCOCC2)c(C)cc1C)S(=O)(=O)C(F)(F)F [Compound 363]	20	80	30	90	0	10	60	70	60	90	–	–	–	–
CCOC(=O)N(c1cc(C(=O)N2CCC(c3ccccc3)CC2)c(C)cc1C)S(=O)(=O)C(F)(F)F [Compound 365]	0	20	0	0	0	0	0	30	40	80	–	–	–	–
CCC1CC(c2cc(N(COC(=O)C(C)(C)C)S(=O)(=O)C(F)(F)F)c(C)cc2C)=NO1 (stereo not shown) [Compound 376]	0	0	–	50	–	20	–	40	–	30	0	0	20	10
CCOC1CC(c2cc(NS(=O)(=O)C(F)(F)F)c(C)cc2C)=NO1 (stereo not shown) [Compound 318]	50	70	30	30	30	50	60	80	60	60	–	–	–	–
Cc1cc(C)c(N(S(=O)(=O)C(F)(F)F)S(=O)(=O)C(F)(F)F)cc1C1=NOC2COCC12 (stereo not shown) [Compound 296]	50	90	20	60	0	20	20	30	50	80	–	–	–	–
Cc1cc(C)c(-n2nccc(C)c2=O)cc1NS(=O)(=O)C(F)(F)F [Compound 281]	0	0	0	40	0	40	0	70	0	0	–	–	–	–
Cc1c(NS(=O)(=O)C(F)(F)F)cc(C(=O)N2CCOCC2)c(C)c1Cl [Compound 290]	20	60	30	70	0	20	60	70	80	90	–	–	–	–
CCC1ON=C(c2cc(N(COC(=O)C(C)(C)C)S(=O)(=O)C(F)(F)F)c(C)cc2C)C1CC (stereo not shown) [Compound 344]	0	0	0	30	20	50	30	60	70	100	–	–	–	–
Cc1cc(C)c(N(COC(=O)N(C)C)S(=O)(=O)C(F)(F)F)cc1C1=NOC2CCCC12 (stereo not shown) [Compound 317]	0	0	0	0	0	0	10	0	0	0	–	–	–	–

From US20230278972A1, “SUBSTITUTED HALOALKYL SULFONANILIDE HERBICIDES” (FMC Corporation, priority 2020, published 2023)
